ChEMBL document CHEMBL4118136, “The photodynamic activity of 131-[2'-(2-pyridyl)ethylamine] chlorin e6 photosensitizer in human esophageal cancer” (Bioorg Med Chem Lett, 2018)
The source made the active and inactive calls. No cut-off for these calls is given here.

Legend:
[1] = test system: ECa-109 cell line; experiment: Cytotoxicity in human ECA109 cells assessed as reduction in cell viability incubated for 24 hrs followed by irradiation with 2.5 J/cm2 red light by MTT assay; type: functional, cell-based; conditions: ECa-109, light or radiation study
[2] = test system: ECa-109 cell line; experiment: Induction of apoptosis in human ECA109 cells assessed as early apoptosis cells level measured 4 hrs after 2 J/cm2 irradiation by Annexin V and propidium iodide staining based flow cytometry; type: functional
[3] = test system: ECa-109 cell line; experiment: Induction of apoptosis in human ECA109 cells assessed as reduction in pro-caspase-3 activity measured 2 hrs after 2 J/cm2 irradiation; type: functional, cell-based
[4] = test system: ECa-109 cell line; experiment: Antitumor activity against human ECA109 cells xenografted in Balb/C nude mouse assessed as increase in megakaryocytes level at 2 mg/kg, iv followed by irradiation at 100 J/cm2 and measured after 13 days by hematoxylin-eosin staining based light microscopy relative to untreated control; type: functional, organism-based
[5] = test system: ECa-109 cell line; experiment: Induction of apoptosis in human ECA109 cells assessed as early apoptosis cells level measured 2 hrs after 2 J/cm2 irradiation by Annexin V and propidium iodide staining based flow cytometry; type: functional
[6] = test system: ECa-109 cell line; experiment: Cytotoxicity in human ECA109 cells assessed as reduction in cell viability incubated for 24 hrs followed by irradiation with 2 J/cm2 red light by MTT assay; type: functional, cell-based; conditions: ECa-109, light or radiation study
[7] = test system: ECa-109 cell line; experiment: Induction of apoptosis in human ECA109 cells xenografted in Balb/C nude mouse at 2 mg/kg, iv followed by irradiation at 100 J/cm2 and measured after 13 days by TUNEL staining based light microscopy relative to untreated control; type: functional
[8] = test system: ECa-109 cell line; experiment: Cytotoxicity in human ECA109 cells assessed as reduction in cell viability incubated for 24 hrs followed by irradiation with 0.5 to 2.5 J/cm2 red light by MTT assay; type: functional, cell-based
[9] = test system: ECa-109 cell line; experiment: Induction of apoptosis in human ECA109 cells assessed as early apoptotic cells level in absence of irradiation by Annexin V and propidium iodide staining based flow cytometry; type: cell-based
[10] = test system: ECa-109 cell line; experiment: Induction of apoptosis in human ECA109 cells assessed as late apoptosis cells level measured 2 hrs after 2 J/cm2 irradiation by Annexin V and propidium iodide staining based flow cytometry (reference value: 0.01%); type: functional
[11] = test system: ECa-109 cell line; experiment: Cytotoxicity in human ECA109 cells assessed as reduction in cell viability incubated for 24 hrs followed by irradiation with 0.5 J/cm2 red light by MTT assay; type: functional, cell-based; conditions: ECa-109, light or radiation study
[12] = test system: ECa-109 cell line; experiment: Induction of apoptosis in human ECA109 cells assessed as necrosis cells level measured 8 hrs after 2 J/cm2 irradiation by Annexin V and propidium iodide staining based flow cytometry; type: functional
[13] = test system: ECa-109 cell line; experiment: Antitumor activity against human ECA109 cells xenografted in Balb/C nude mouse assessed as inhibition of tumor growth at 2 mg/kg, iv followed by irradiation at 100 J/cm2 and measured after 13 days relative to untreated control; type: functional; conditions: ECa-109, light or radiation study, 312 h, read-out: TGI
[14] = test system: ECa-109 cell line; experiment: Induction of apoptosis in human ECA109 cells assessed as necrosis cells level measured 4 hrs after 2 J/cm2 irradiation by Annexin V and propidium iodide staining based flow cytometry; type: functional
[15] = test system: ECa-109 cell line; experiment: Induction of apoptosis in human ECA109 cells assessed as late apoptosis cells level measured 4 hrs after 2 J/cm2 irradiation by Annexin V and propidium iodide staining based flow cytometry (reference value: 0.01%); type: functional
[16] = test system: ECa-109 cell line; experiment: Antitumor activity against human ECA109 cells xenografted in Balb/C nude mouse assessed as reduction in tumor cell per unit area at 2 mg/kg, iv followed by irradiation at 100 J/cm2 and measured after 13 days by hematoxylin-eosin staining based light microscopy relative to untreated control; type: functional, organism-based
[17] = test system: ECa-109 cell line; experiment: Induction of apoptosis in human ECA109 cells assessed as viable cells level measured 2 hrs after 2 J/cm2 irradiation by Annexin V and propidium iodide staining based flow cytometry (reference value: 99.99%); type: functional
[18] = test system: ECa-109 cell line; experiment: Induction of apoptosis in human ECA109 cells assessed as late apoptotic cells level in absence of irradiation by Annexin V and propidium iodide staining based flow cytometry (reference value: 0.01%); type: cell-based
[19] = test system: ECa-109 cell line; experiment: Induction of apoptosis in human ECA109 cells assessed as early apoptosis cells level measured 8 hrs after 2 J/cm2 irradiation by Annexin V and propidium iodide staining based flow cytometry; type: functional
[20] = Drug accumulation in endoplasmic reticulum of human ECA109 cells at 0.9 uM incubated for 4 hrs by ER-green[DiOC6(3)] dye based confocal microscopy; type: ADME, subcellular; conditions: eca-109, 4 h
[21] = test system: ECa-109 cell line; experiment: Antitumor activity against human ECA109 cells xenografted in Balb/C nude mouse assessed as increase in nuclear fission level at 2 mg/kg, iv followed by irradiation at 100 J/cm2 and measured after 13 days by hematoxylin-eosin staining based light microscopy relative to untreated control; type: functional, organism-based
[22] = test system: ECa-109 cell line; experiment: Cytotoxicity in human ECA109 cells assessed as reduction in cell viability incubated for 24 hrs followed by irradiation with 1 J/cm2 red light by MTT assay; type: functional, cell-based; conditions: ECa-109, light or radiation study
[23] = test system: ECa-109 cell line; experiment: Induction of apoptosis in human ECA109 cells assessed as late apoptosis cells level measured 8 hrs after 2 J/cm2 irradiation by Annexin V and propidium iodide staining based flow cytometry (reference value: 0.01%); type: functional
[24] = Induction of apoptosis in human ECA109 cells assessed as viable cells level in absence of irradiation by Annexin V and propidium iodide staining based flow cytometry (reference value: 99.99%); type: cell-based, ECa-109; conditions: read-out: Activity
[25] = test system: ECa-109 cell line; experiment: Antitumor activity against human ECA109 cells xenografted in Balb/C nude mouse assessed as increase in cell differentiation at 2 mg/kg, iv followed by irradiation at 100 J/cm2 and measured after 13 days by hematoxylin-eosin staining based light microscopy relative to untreated control; type: functional, organism-based
[26] = Drug accumulation in mitochondria of human ECA109 cells at 0.9 uM incubated for 4 hrs by mitotracker green dye based confocal microscopy; type: ADME; conditions: eca-109, 4 h
[27] = Induction of singlet oxygen generation assessed as DPBF chemical oxidation in DMF solution incubated for 10 to 30 secs under irradiation by UV-Vis spectrophotometry relative to mTHPC; type: functional
[28] = test system: ECa-109 cell line; experiment: Cytotoxicity in human ECA109 cells assessed as reduction in cell viability incubated for 24 hrs followed by irradiation with 1.5 J/cm2 red light by MTT assay; type: functional, cell-based; conditions: ECa-109, light or radiation study
[29] = Drug accumulation in lysosome of human ECA109 cells at 0.9 uM incubated for 4 hrs by Lyso tracker blue green dye based confocal microscopy; type: ADME, subcellular; conditions: eca-109, 4 h
[30] = test system: ECa-109 cell line; experiment: Induction of apoptosis in human ECA109 cells assessed as viable cells level measured 4 hrs after 2 J/cm2 irradiation by Annexin V and propidium iodide staining based flow cytometry (reference value: 99.99%); type: functional
[31] = test system: ECa-109 cell line; experiment: Induction of apoptosis in human ECA109 cells assessed as viable cells level measured 8 hrs after 2 J/cm2 irradiation by Annexin V and propidium iodide staining based flow cytometry (reference value: 99.99%); type: functional
[32] = Induction of singlet oxygen generation assessed as singlet oxygen quantum yield by measuring DPBF chemical oxidation in DMF solution incubated for 10 to 30 secs under irradiation by UV-Vis spectrophotometry; type: functional
[33] = Induction of singlet oxygen generation assessed as DPBF chemical oxidation in DMF solution incubated for 10 to 30 secs under irradiation by UV-Vis spectrophotometry; type: functional; conditions: TDE = time-dependent effect
[34] = test system: ECa-109 cell line; experiment: Induction of apoptosis in human ECA109 cells assessed as necrotic cells level in absence of irradiation by Annexin V and propidium iodide staining based flow cytometry; type: cell-based
[35] = test system: ECa-109 cell line; experiment: Induction of apoptosis in human ECA109 cells assessed as necrosis cells level measured 2 hrs after 2 J/cm2 irradiation by Annexin V and propidium iodide staining based flow cytometry; type: functional
[36] = Drug uptake in human ECA109 cells at 0.5 uM incubated for 2 to 24 hrs by fluorescence spectrometry; type: ADME, cell-based; conditions: eca-109, 0.5 µM, TDE = time-dependent effect
[37] = Dark toxicity in human ECA109 cells assessed as reduction in cell viability at 0.1 to 0.9 uM incubated for 24 hrs under dark conditions by MTT assay; type: cell-based; conditions: eca-109, 24 h

In the case of `C=Cc1c(C)c2cc3nc(c(CC(=O)OC)c4[nH]c(cc5nc(cc1[nH]2)C(C)=C5CC)c(C)c4C(=O)NCCc1ccccn1)[C@@H](CCC(=O)OC)[C@@H]3C`, the IC50 [1] is reported as 300 nM, the Activity [2] is reported as 8.1% and the Activity [3] is reported as “Active”. For the same molecule, the Activity [4] was “Active”, the Activity [5] was 7.15% and the IC50 [6] was 380 nM. For the same molecule, the Activity [7] was 40%, the Activity [8] was “Dose-dependent effect” and the Activity [9] was 3.16%. For the same molecule, the Activity [10] was 68.34%, the IC50 [11] was 1330 nM and the Activity [12] was 3.29%. The inhibition in vivo at 2 mg/kg [13] was 92%, the Activity [14] was 7.87% and the Activity [15] was 70.93%. The Activity [16] was “Active”, the Activity [17] was 15.19% and the Activity [18] was 4.7%. For the same molecule, the Activity [19] was 6.01%, the Drug uptake [20] was “Active” and the Activity [21] was “Active”. For the same molecule, the IC50 [22] was 640 nM, the Activity [23] was 85.78% and the viability [24] was 89.8%. The Activity [25] was “Active”, the Drug uptake [26] was “Active” and the fold change (FC) [27] was 0.0193. The IC50 [28] was 430 nM, the Drug uptake [29] was “Active” and the Activity [30] was 13.1%. For the same molecule, the Activity [31] was 4.92%, the Activity index [32] was 0.98 and the Activity [33] was “Tde”. For the same molecule, the Activity [34] was 2.3%, the Activity [35] was 9.33% and the Drug uptake [36] was “Tde”. For the same molecule, the Activity [37] was “Non-Toxic”.
Molecule `Oc1cccc(-c2c3nc(c(-c4cccc(O)c4)c4ccc([nH]4)c(-c4cccc(O)c4)c4nc(c(-c5cccc(O)c5)c5ccc2[nH]5)CC4)C=C3)c1` [TEMOPORFIN] has an inhibition in vivo at 2 mg/kg [13] of 79%.
